Reference: patent US8679859B2, “Method for functionalizing materials and devices comprising such materials” (State of Oregon by and through the State Board of Higher …, priority 2007, dated 2014)

Experiments:
peanut agglutinin (PNA) = molecular target: T1, peanut agglutinin (PNA) (Arachis hypogaea, UniProt P02872); test: Carbohydrate microarray on PEO-coated glass slides, fluorescence-tagged lectin binding; details: lectin 10 μg/ml, FIG. 30
T1 construct: purchased Molecular Probes
T1 sequence (P02872 24-273): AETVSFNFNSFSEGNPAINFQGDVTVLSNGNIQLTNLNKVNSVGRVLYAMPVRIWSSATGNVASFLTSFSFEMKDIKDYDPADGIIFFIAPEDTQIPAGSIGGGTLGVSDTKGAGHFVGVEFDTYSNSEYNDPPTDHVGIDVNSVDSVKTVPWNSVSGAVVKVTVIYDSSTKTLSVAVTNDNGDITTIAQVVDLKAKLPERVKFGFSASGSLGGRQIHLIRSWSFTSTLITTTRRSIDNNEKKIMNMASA

soybean agglutinin (SBA) = soybean agglutinin (SBA) (Glycine max, UniProt P05046); test: as above; details: lectin 10 μg/ml, FIG. 32
Procedure: The slides were subsequently irradiated under UV (7 min), and washed with PBS (pH 7.4) containing 0.1% Tween® 20 for 30 minutes and then rinsed with water to remove excess carbohydrates. After drying under a stream of nitrogen, the slides were first incubated with a solution of PBS (pH 7.4) containing 0.1% Tween® 20 and 3% BSA (w/v) for 30 minutes, and then washed with PBS (pH 7.4) containing 0.1% Tween® 20 for 20 minutes. After drying under a stream of nitrogen, the slides were incubated with Alexa Fluo 647-labeled lectins (10 μg/ml) in PBS (pH 7.4) containing 0.1% Tween® 20 overnight at room temperature. The unbound lectins were removed by gentle shaking in the same buffer for 20 minutes, after which time the slides were scanned (Ex: 633 nm; Em: 650-750 nm).
Following array preparation, binding analysis of the surfaces was performed. Fluorescence-tagged lectins were used, and fluorescence imaging was employed in developing the array binding patterns. Four different lectins were assayed: Griffonia simplicifolia II (GSII), peanut agglutinin (PNA), jack bean lectin (Con A), and soybean agglutinin (SBA).

Con A = Con A (Canavalia ensiformis, UniProt P02866); details: free carbohydrate with Con A, isothermal microcalorimetry, Mandal et al.; cited from earlier work
jack bean lectin (Con A) = molecular target: T2, jack bean lectin (Con A) (Canavalia ensiformis, UniProt P02866); test: Carbohydrate microarray on PEO-coated glass slides, fluorescence-tagged lectin binding; details: lectin 10 μg/ml, FIG. 31
T2 construct: purchased Molecular Probes

soybean agglutinin (SBA), sequence (P05046 33-285): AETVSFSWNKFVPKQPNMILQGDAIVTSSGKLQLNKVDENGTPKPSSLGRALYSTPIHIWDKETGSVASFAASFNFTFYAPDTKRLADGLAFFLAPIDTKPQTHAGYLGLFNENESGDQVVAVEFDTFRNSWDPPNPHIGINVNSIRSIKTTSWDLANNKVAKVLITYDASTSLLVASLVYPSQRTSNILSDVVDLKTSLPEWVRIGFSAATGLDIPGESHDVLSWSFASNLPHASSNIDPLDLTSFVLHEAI

| Molecule | PNA binding pattern on microarray (fluorescence) (peanut agglutinin (PNA)) | Con A binding pattern on microarray (fluorescence) (jack bean lectin (Con A)) | further results |
| --- | --- | --- | --- |
| [N-]=[N+]=Nc1c(F)c(F)c(C(=O)NCCOCCOCCO[C@@H]2OC(CO)[C@@H](O[C@@H]3OC(CO)[C@H](O)C(O)C3O)C(O)C2O)c(F)c1F (stereo partly drawn) [lactose] | primary ligand | – | SBA binding pattern on microarray (fluorescence) (soybean agglutinin (SBA)): showed binding |
| OC[C@H]1O[C@H](O[C@H]2[C@H](O)[C@@H](CO)OC(O)[C@H]2O)[C@@H](O)[C@@H](O)[C@@H]1O (stereo partly drawn) [α-1,3-mannobiose] | – | – | Ka (Con A): 142000 M⁻¹ |
| [N-]=[N+]=Nc1c(F)c(F)c(C(=O)NCCOCCOCCO[C@H]2OC(CO)[C@@H](O)C(O)C2O)c(F)c1F (stereo partly drawn) [α-D-mannoside structures] | – | specificity of Con A for binding | – |
| [N-]=[N+]=Nc1c(F)c(F)c(C(=O)NCCOCCOCCO[C@@H]2OC(CO)[C@@H](O)C(O)C2O)c(F)c1F (stereo partly drawn) [β-D-glucoside] | – | low binding | – |
| cellobiose | lesser amounts of binding | – | – |
